Legend:
mites (Chorioptes bovis) = assay: Comparative trial vs Amitraz: mite count in skin scraping samples; format: in vivo; settings: week 4; 10 animals per group
Excerpt: (§1) Twenty Belgian Blue cattle (6 heifers and 14 cows) were used in this trial. Cattle with mild or severe visual signs of scabies infection were selected, tied, shaved, scored for scabies lesions (clinical index) and skin scraping samples were taken for counts of mites and lice. Next, the animals were divided into 2 groups, a control group and a treatment group, based on the results of the clinical index and mite—lice counts at the end of the pre-treatment phase. At the start of the treatment period, animals were housed in a tie-stable, shaved and tied to prevent physical contact with other animals.
(§2) Control group: The animals in the positive control group were treated according to the standard ILVO (Flecmish Institute for Agriculture and Fishery) scabies prevention protocol which consisted of treatment with Amitraz (Tactic) and removal of the crusts, followed by a second treatment with interval of 10 days between both treatments. After the second treatment crusts were not removed.
Treatment group: The animals in the treatment group were not treated with Amitraz (Tactic), but were fed the indicative daily dose of 200 g of dried chicory root composition per animal per day. […]
Using microscopy, the numbers of mites and lice in each sample were counted and the types of mites and lice were identified by an expert at the Laboratory of Parasitology, Ghent University, Belgium. […]

[1] = tested on: scabies (dominantly caused by the mite Chorioptes bovis); assay: Comparative trial vs Amitraz: clinical index of scabies lesions; format: in vivo; parameters: key to clinical index, active lesions (4): % area with type 4 lesions = squares type 4/350*100; settings: for clinical index, active lesions (4): week not given
Excerpt: The whole trial lasted for 15 weeks and was subdivided in […]: a pre-treatment period of 9 weeks, a treatment period of 3 weeks, and a 3 week post-treatment period.
The trial started with pre-treatment period of 9 weeks during which the animals were housed in a straw-bedded free stall and received no preventive treatment against scabies and lice. At the end of the pre-treatment period, the degree of scabies lesions (clinical index) and counts of mites and lice in skin-scraping samples were evaluated.
as §1, §2
Treatment group: The animals in the treatment group were not treated with Amitraz (Tactic), but were fed the indicative daily dose of 200 g of dried chicory root composition per animal per day. Said amount corresponds to roughly 1 to 2% of dried chicory root on the total feed. Dried chicory root composition was provided mixed through the daily dose of soybean meal and concentrate. The nutritional treatment with dried chicory root composition lasted for 3 consecutive weeks during which the animals receive their daily dose of dried chicory root composition. […]
In the last week of the pre-treatment period (week 0) and every following week till the end of the post-treatment period, the clinical index was determined as a measure for scabies lesions. Per animal, the number, size and type of scabies lesions was determined using a scoring form.
A distinction was made between dried, healing lesions (type 3) and wet, active lesions (type 4). The clinical index was calculated based on the total number of lesions using the formula: Area with lesions=total squares/350*100.
In addition, an alternative clinical index was calculated based on the number of active lesions: Area with lesions type 4=squares type 4/350*100. […]

## Cc1ccc(/N=C/N(C)/C=N/c2ccc(C)cc2C)c(C)c1 [Tactic, Amitraz]
Mites (Chorioptes bovis)
  WBT samples positive for Chorioptes bovis: 3 samples
  hock samples positive for Chorioptes bovis: one
[1]; 3rd week pair of columns
  clinical index, active lesions (4): 0.0
[1]; 4th week pair of columns
  clinical index, active lesions (4): 0.0
[1]; 5th week pair of columns
  clinical index, active lesions (4): 0.0
[1]; equivalence test
  clinical index of Tactic group higher than that of dried chicory root group, 95% confidence maximum: ≤ 15%
